One assay has as its target T1, JAK1 (Homo sapiens, UniProt P23458).
T1 construct: purchased Invitrogen
Description: JAK1 enzyme inhibition test (LANCE method). The format is biochemical. To be noted: for inhibition at 1 µM: test compound 1 μM, read-out: Inhibitory rate (%) JAK1 1 μM; for inhibition at 10 µM: read-out: Inhibitory rate (%) JAK1 10 μM. The essentials: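 TR-FRET (LANCE) kinase assay using JAK1 at 187.5 ng/mL, ULight-JAK1 peptide at 300 nM and ATP at 150 μM, given as solution concentrations before mixing. Buffer was 50 mM HEPES pH 7.5 with 10 mM MgCl2 and 2 mM DTT, and the reaction ran 1 h at room temperature. Eu anti-phosphotyrosine signal at 665 nm was expressed relative to a no-enzyme well, taken as 100% inhibition.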

Another assay concerns the target T2, Tyk2 (Homo sapiens, UniProt P29597).
T2 construct: purchased Invitrogen
Briefly: Tyk2 enzyme inhibition test (LANCE method). It counts as biochemical. To be noted: test compound 1 μM; for inhibition at 1 µM: read-out: Inhibitory rate (%) Tyk2 1 μM. The essentials: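 Recombinant Tyk2 (375 ng/mL stock) with ULight-JAK1 peptide (300 nM stock) and ATP (30 μM stock) in HEPES pH 7.5/MgCl2/EGTA/DTT buffer, 1 h at room temperature. Stopped with EDTA plus Eu-anti-phosphotyrosine antibody; TR-FRET read at 665 nm after 1 h. No-enzyme wells define 100% inhibition.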
In general terms: In TR-FRET formats the signal depends on donor and acceptor labels being close together.

Setting [1] is: test compound 10 μM (Ex. 182-220), beside Tyk2 1 μM.

T1 sequence (P23458 whole entry): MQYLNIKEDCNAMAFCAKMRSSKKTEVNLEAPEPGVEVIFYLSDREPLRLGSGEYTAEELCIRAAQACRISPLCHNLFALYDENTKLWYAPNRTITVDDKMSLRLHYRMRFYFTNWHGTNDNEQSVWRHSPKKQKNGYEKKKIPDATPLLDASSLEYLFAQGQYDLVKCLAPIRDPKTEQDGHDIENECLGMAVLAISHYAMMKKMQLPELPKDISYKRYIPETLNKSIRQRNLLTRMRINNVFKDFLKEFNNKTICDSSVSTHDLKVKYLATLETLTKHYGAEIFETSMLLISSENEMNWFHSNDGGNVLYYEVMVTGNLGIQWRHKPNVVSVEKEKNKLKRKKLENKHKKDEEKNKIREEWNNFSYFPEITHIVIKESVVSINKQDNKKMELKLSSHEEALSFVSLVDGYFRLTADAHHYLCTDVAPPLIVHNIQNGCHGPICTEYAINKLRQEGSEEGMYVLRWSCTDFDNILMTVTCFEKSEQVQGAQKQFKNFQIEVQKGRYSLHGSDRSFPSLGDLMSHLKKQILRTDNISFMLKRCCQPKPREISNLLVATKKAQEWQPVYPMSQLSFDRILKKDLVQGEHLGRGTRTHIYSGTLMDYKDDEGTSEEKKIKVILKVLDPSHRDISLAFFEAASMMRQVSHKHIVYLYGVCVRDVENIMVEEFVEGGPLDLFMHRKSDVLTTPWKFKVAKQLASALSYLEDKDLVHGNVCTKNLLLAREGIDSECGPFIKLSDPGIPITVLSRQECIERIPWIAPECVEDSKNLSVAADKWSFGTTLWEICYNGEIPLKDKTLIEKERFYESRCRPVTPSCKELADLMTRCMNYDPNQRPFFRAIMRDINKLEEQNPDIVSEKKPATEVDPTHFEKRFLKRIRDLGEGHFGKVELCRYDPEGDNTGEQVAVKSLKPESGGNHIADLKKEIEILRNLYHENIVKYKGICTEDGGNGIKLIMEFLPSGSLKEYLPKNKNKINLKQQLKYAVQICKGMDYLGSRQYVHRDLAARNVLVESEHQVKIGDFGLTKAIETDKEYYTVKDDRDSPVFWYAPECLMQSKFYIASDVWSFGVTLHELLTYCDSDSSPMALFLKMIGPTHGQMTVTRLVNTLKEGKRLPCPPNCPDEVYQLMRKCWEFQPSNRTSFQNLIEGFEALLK
T2 sequence (P29597 whole entry): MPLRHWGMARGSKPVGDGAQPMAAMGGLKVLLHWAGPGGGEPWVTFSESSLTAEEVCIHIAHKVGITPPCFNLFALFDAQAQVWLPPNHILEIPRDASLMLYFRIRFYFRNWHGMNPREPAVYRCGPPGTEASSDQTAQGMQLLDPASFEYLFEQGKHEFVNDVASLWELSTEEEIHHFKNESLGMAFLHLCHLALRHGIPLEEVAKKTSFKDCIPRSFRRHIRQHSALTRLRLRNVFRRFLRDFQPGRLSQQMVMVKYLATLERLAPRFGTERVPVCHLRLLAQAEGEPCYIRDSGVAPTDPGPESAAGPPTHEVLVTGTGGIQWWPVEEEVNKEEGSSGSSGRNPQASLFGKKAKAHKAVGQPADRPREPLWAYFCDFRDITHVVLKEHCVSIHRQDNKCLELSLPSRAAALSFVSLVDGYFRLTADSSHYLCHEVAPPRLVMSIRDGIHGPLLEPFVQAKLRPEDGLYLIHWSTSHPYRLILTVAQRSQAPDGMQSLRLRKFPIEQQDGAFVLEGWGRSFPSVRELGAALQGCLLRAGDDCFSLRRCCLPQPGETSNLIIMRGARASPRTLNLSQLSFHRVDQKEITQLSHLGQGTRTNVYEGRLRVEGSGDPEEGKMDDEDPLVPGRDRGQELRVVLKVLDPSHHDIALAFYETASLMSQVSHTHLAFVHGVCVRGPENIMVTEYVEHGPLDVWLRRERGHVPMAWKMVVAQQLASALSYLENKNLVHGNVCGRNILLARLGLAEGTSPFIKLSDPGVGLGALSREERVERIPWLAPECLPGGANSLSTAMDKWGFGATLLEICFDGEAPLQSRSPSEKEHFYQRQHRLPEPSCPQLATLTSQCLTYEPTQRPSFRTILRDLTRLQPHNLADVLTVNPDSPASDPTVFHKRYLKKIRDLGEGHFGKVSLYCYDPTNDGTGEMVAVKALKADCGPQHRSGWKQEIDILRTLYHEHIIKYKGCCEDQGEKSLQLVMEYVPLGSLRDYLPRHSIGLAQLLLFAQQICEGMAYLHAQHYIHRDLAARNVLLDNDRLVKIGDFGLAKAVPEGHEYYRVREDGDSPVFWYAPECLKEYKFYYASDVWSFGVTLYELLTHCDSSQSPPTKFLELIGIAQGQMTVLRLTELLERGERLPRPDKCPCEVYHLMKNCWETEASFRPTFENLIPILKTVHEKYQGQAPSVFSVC

In the case of `O=c1[nH]ccc2c1c(-c1ccc(C3=CCOCC3)cc1)nn2-c1c(F)cccc1F` [Example 256, 1-(2,6-difluorophenyl)-3-(4-(3,6-dihydro-2H-pyran-4-yl)phenyl)-1,5-dihydro-4H-pyrazolo[4,3-c]pyridin-4-one], the inhibition at 1 µM came to 92% at JAK1 and 98% at Tyk2.
With `N#CCc1ccc(-c2nn(C3CCCC3)c3cc[nH]c(=O)c23)cc1` [Example 127, (4-(1-cyclopentyl-4-oxo-4,5-dihydro-1H-pyrazolo[4,3-c]pyridin-3-yl)phenyl)acetonitrile], the inhibition at 1 µM at JAK1 is 99%; on Tyk2, 97%.
On to `CCC1(O)CCC(n2nc(-c3ccc(S(N)(=O)=O)cc3)c3c(=O)[nH]ccc32)CC1` (stereo not drawn) [Example 210, 4-(1-(4-ethyl-4-hydroxycyclohexyl)-4-oxo-4,5-dihydro-1H-pyrazolo[4,3-c]pyridin-3-yl)benzenesulfonamide], for which the “Inhibitory rate (%) JAK1 10 μM” value at JAK1 (setting [1]) is recorded as 99%. Further, on Tyk2, the “Inhibitory rate (%) Tyk2 1 μM” value is given as 97%.
In the case of `O=c1[nH]ccc2c1c(-c1ccc(N3CCOCC3)cc1)nn2C1CCCCC1(F)F` (stereo not drawn) [Example 317, 1-(2,2-difluorocyclohexyl)-3-(4-(morpholin-4-yl)phenyl)-1,5-dihydro-4H-pyrazolo[4,3-c]pyridin-4-one], the results for the inhibition at 1 µM on JAK1 and at Tyk2 were 96% and 99%, respectively.
On to `NC(=O)c1cc(-c2nn([C@H]3CC[C@@H](O)CC3)c3cc[nH]c(=O)c23)cs1` [Example 184, 4-(1-(cis-4-hydroxycyclohexyl)-4-oxo-4,5-dihydro-1H-pyrazolo[4,3-c]pyridin-3-yl)thiophene-2-carboxamide], for which the inhibition at 10 µM on JAK1 (setting [1]) is 100%. The inhibition at 1 µM at Tyk2 was determined as 99%.
As for `CNC(=O)c1cc(-c2nn(-c3c(F)cccc3F)c3c(Cl)c[nH]c(=O)c23)cs1` [Example 162, 4-(7-chloro-1-(2,6-difluorophenyl)-4-oxo-4,5-dihydro-1H-pyrazolo[4,3-c]pyridin-3-yl)-N-methylthiophene-2-carboxamide], the inhibition at 1 µM on JAK1 and at Tyk2 was 99% each time.
Regarding `CC1(O)CCC(n2nc(-c3ccc(S(N)(=O)=O)cc3)c3c(=O)[nH]ccc32)CC1` (stereo not drawn) [Example 196, 4-(1-(4-hydroxy-4-methylcyclohexyl)-4-oxo-4,5-dihydro-1H-pyrazolo[4,3-c]pyridin-3-yl)benzenesulfonamide], the inhibition at 10 µM at JAK1 (setting [1]) was determined as 100%. Besides, the inhibition at 1 µM at Tyk2 was 100%.
Consider `NC(=O)Cc1ccc(-c2nn(C3CCCC3)c3cc[nH]c(=O)c23)cc1` [Example 182, 2-(4-(1-cyclopentyl-4-oxo-4,5-dihydro-1H-pyrazolo[4,3-c]pyridin-3-yl)phenyl)acetamide], for which the inhibition at 10 µM at JAK1 (setting [1]) came to 98%. Moreover, the inhibition at 1 µM on Tyk2 turned out to be 98%.
Regarding `CNC(=O)c1ccc(-c2nn(-c3c(F)cccc3F)c3c(Cl)c[nH]c(=O)c23)cc1F` [Example 216, 4-(7-chloro-1-(2,6-difluorophenyl)-4-oxo-4,5-dihydro-1H-pyrazolo[4,3-c]pyridin-3-yl)-2-fluoro-N-methylbenzamide], the inhibition at 10 µM on JAK1 (setting [1]) stood at 27%. In addition, the inhibition at 1 µM at Tyk2 was found to be 97%.
For the compound `NS(=O)(=O)c1cccc(-c2nn(C3CCCC3)c3cc[nH]c(=O)c23)c1` [Example 159, 3-(1-cyclopentyl-4-oxo-4,5-dihydro-1H-pyrazolo[4,3-c]pyridin-3-yl)benzenesulfonamide], the inhibition at 1 µM at JAK1 is 91%; at Tyk2, 87%.
The matching figures for `NS(=O)(=O)c1ccc(-c2nn(CC3COC3)c3cc[nH]c(=O)c23)cc1` [Example 105, 4-(1-(oxetan-3-ylmethyl)-4-oxo-4,5-dihydro-1H-pyrazolo[4,3-c]pyridin-3-yl)benzenesulfonamide]: 88% and 66%.
For the compound `NS(=O)(=O)c1ccc(-c2nn(C3CCCCC3)c3cc[nH]c(=O)c23)cc1` [Example 6, 4-(1-cyclohexyl-4-oxo-4,5-dihydro-1H-pyrazolo[4,3-c]pyridin-3-yl)benzenesulfonamide], the inhibition at 1 µM on JAK1 was 98%; on Tyk2, 99%.
